Consider 3 compounds from patent US20160243277A1, “FAST CURING POROUS MATERIALS AND CONTROL THEREOF” (priority 2013, published 2016).

The test system of data set [1] is human mesenchymal stem cells (hMSCs). As to the kind of experiment: Macromer extract dilution cytocompatibility test (modified ISO 10993-5, Live/Dead). As to conditions: undiluted (1X) extract from 10 minute media incubation with macromer, 24 hour culture.
Experimental: Bone marrow-derived human mesenchymal stem cells (hMSCs) were obtained as Passage 1 in a cryovial from the Center for the Preparation and Distribution of Adult Stem Cells. Cells were cultured in growth media containing 16.5% fetal bovine serum (Atlanta Biologicals), 1% L-glutamine (Life Technologies) and Minimum Essential Media α (MEM α, Life Technologies) to about 80% confluency and utilized at Passages 5 and 6. Cells were trypsinized with 0.25% Trypsin-EDTA (Life Technologies) and seeded at a density of about 40,000 cells/cm^2 in a 96 well plate and allowed to adhere for about 24 hours. On the following day, about 100 μl of each macromer was incubated in about 300 μl growth media supplemented with 1 vol. % penicillin-streptomycin (Life Technologies) in a 48 well plate to mimic the ratio of organic to aqueous phase in the HIPE. After about 10 minute incubation at about 37° C., 5% CO2, the supernatant above the macromers was aspirated and diluted to about 10× and about 100× solutions. […] Extracted and diluted media (1, 10, and 100×) was then added to cells and cultured for an additional time, generally about 24 hours. Viability was assessed utilizing the Live/Dead® assay kit (registration with Molecular Probes Corporation, Eugene, Oreg.). The analysis used a plate reader (Tecan Infinite M200Pro) with excitation/emission wavelengths of 485/528 and 528/620 for calcein-AM and ethidium homodimer-1 dyes, respectively. Viability was normalized to cells on tissue culture polystyrene.
For data set [2] the following is noted: previously described PFDMA macromer; cited from earlier work.

Consider `C=C(C)C(=O)OCCCCOC(=O)C(=C)C` [BDMA, butane diol dimethacrylate], for which the “hMSC viability after exposure to extract media” value in data set [1] is on record as “less”. On the same count and under the same terms, the entry for `C=C(C)C(=O)OCCOC(=O)C(=C)C` [EGDMA, ethylene glycol dimethacrylate] is “less”. Regarding “propylene fumarate dimethacrylate [PFDMA]”, the Macromer viscosity result in data set [2] is “about 125 cP”. Besides, the “hMSC viability after exposure to extract media” value in data set [1] is above 80%.
